The test system of one experiment is A549 cells. Nature of the experiment: Ras cellular assay, growth of cells with K-Ras G12S mutation (CellTiter-Glo). The note with it: Homo sapiens, cell growth, Example 9, G12S mutation, read-out: IC50 against A549 cells. The experiment is classed as cell-based. Here is the method: For example, this assay can be also used to assess a selective growth inhibition of a mutant Ras protein relative to a wildtype, or relative to a different mutant Ras protein.
A549 (ATCC CCL-185) and LS123 (ATCC CCL-255) cell lines comprise a G12S mutation and can be used to assess Ras cellular signaling in vitro, e.g., in response to the compounds herein. A549 culture medium is prepared with RPMI-1640 and 10% heat-inactivated FBS. LS123 culture medium is prepared with RPMI-1640 and 10% heat-inactivated FBS. A CellTiter-Glo (CTG) luminescent based assay (Promega) is used to assess growth of the cells, as a measurement of the ability of the compounds herein to inhibit Ras signaling in the cells. The cells (e.g., 800 per well) are seeded in their respective culture medium in standard tissue culture-treated 384-well format plates (Falcon #08-772-116) or ultra-low attachment surface 384-well format plates (S-Bio #MS-9384WZ). The day after plating, cells are treated with a dilution series (e.g., a 10 point 3-fold dilution series) of the compounds herein (e.g., approximately 40 μL final volume per well). Cell viability can be monitored (e.g., approximately 6 days later) according to the manufacturer's recommended instructions, where the CellTiter-Glo reagent is added (e.g., approximately 10 μL), vigorously mixed, covered, and placed on a plate shaker (e.g., approximately for 20 min) to ensure sufficient cell lysis prior to assessment of luminescent signal. The IC50 values are determined using the four parameter fit. The resulting IC50 value is a measurement of the ability of the compounds herein to reduce cell growth of Ras-driven cells (e.g., tumor cell lines) in vitro and/or in vivo.

For a further experiment, the target named is T1, K-Ras G12S (Homo sapiens, UniProt P01116, G12S).
T1 construct: made in house; host or cells: E. coli BL21 (DE3)
Nature of the experiment: HTRF resonance energy transfer assay, K-Ras G12S / SOS1 interaction. The following applies: HTRF assay of Example 5; read-out: IC50 against K-Ras G12S. The format is biochemical. The method in brief:
(§1)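 Buffer about 5 mM HEPES pH 7.4 with ~150 mM NaCl, ~1 mM DTT, 0.05% BSA, 0.0025% (v/v) Igepal. Protein constructs used at molarity matching the IC50 range studied (e.g. ~500 nM). FRET between tagged K-Ras and hSOS1 measured after short incubation.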
A general note: In TR-FRET formats the signal depends on donor and acceptor labels being close together.

The target of the next experiment is T2, K-Ras G12V (Homo sapiens, UniProt P01116, G12V).
T2 construct: made in house; host or cells: E. coli BL21 (DE3)
Nature of the experiment: HTRF resonance energy transfer assay, K-Ras G12V / SOS1 interaction. The experiment is classed as biochemical. The note with it: HTRF assay of Example 5; read-out: IC50 against K-Ras G12V. An outline of the steps:
as §1

The next experiment addresses T3, K-Ras WT (Homo sapiens, UniProt P01116).
T3 construct: made in house; host or cells: E. coli BL21 (DE3)
Nature of the experiment: HTRF resonance energy transfer assay, K-Ras WT / SOS1 interaction. The following applies: HTRF assay of Example 5; read-out: IC50 against K-Ras WT. The format is biochemical. An outline of the steps:
as §1

In a further experiment the target is T4, K-Ras G12D (Homo sapiens, UniProt P01116, G12D).
T4 construct: made in house; host or cells: E. coli BL21 (DE3)
Put plainly: HTRF resonance energy transfer assay, K-Ras G12D / SOS1 interaction. The format is biochemical. The following applies: HTRF assay of Example 5; read-out: IC50 against K-Ras G12D. An outline of the steps:
as §1

The test system of a further experiment is SW620 cells. Nature of the experiment: Ras cellular assay, growth of cells with K-Ras G12V mutation (CellTiter-Glo). The following applies: Homo sapiens, SW-620; cell growth, Example 9, G12V mutation; read-out: IC50 against SW620 cells. The format is cell-based. The method in brief:
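IC50 values came from a four-parameter fit of CellTiter-Glo viability, read roughly 6 days after dosing with e.g. a 10-point threefold dilution series. G12V-mutant SW620 cells (e.g. 800 per well) had been plated the previous day in RPMI-1640/10% heat-inactivated FBS, on tissue culture-treated or ultra-low attachment plates.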
A general note: Cellular ATP, detected with luciferase, serves as a proxy for viable cell number.

In general, IC50 refers to the concentration that inhibits the measured activity by half.

Where only a bound is given, the exact number is not on record here.

T4 sequence (P01116 1-188 isoform P01116-2 G12D): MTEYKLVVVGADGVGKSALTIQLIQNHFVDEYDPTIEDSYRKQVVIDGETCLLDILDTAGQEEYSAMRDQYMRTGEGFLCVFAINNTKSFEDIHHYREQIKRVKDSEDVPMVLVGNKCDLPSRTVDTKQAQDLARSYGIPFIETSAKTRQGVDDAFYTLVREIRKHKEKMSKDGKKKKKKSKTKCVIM
T3 sequence (P01116 1-188 isoform P01116-2): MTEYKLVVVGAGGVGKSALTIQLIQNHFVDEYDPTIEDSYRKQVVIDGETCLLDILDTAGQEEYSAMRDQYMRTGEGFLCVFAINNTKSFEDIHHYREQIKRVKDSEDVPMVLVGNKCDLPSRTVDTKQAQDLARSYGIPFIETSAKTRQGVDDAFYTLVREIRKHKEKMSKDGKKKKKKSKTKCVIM
T1 sequence (P01116 1-188 isoform P01116-2 G12S): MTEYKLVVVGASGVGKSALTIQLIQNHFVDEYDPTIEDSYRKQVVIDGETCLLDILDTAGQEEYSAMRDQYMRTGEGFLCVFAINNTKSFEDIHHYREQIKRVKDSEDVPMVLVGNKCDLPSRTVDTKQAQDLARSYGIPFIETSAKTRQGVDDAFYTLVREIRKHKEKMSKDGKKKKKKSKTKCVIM
T2 sequence (P01116 1-188 isoform P01116-2 G12V): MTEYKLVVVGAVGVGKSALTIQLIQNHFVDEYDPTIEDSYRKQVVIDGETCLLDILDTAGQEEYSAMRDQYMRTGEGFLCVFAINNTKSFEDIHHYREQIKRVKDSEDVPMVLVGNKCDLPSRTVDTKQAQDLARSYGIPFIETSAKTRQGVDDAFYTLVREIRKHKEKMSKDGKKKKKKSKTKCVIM

Regarding `C[C@H]1COc2c(Cl)c(-c3ccc(F)c4sc(N)c(C#N)c34)c(F)c3nc(OC[C@@]45CCCN4C[C@H](F)C5)nc(c23)N1CC(F)F` [Compound 658, 2-amino-4-((5S)-8-chloro-4-(2,2-difluoroethyl)-10-fluoro-2-(((2R,7aS)-2-fluorotetrahydro-1H-pyrrolizin-7a(5H)-yl)methoxy)-5-methyl-5,6-dihydro-4H-[1,4]oxazepino[5,6,7-de]quinazolin-9-yl)-7-fluorobenzo[b]thiophene-3-carbonitrile], the IC50 in the experiment with A549 cells was less than 5000 nM.
As for `N#Cc1c(N)sc2c(F)ccc(-c3c(Cl)c4c5c(nc(OC[C@@]67CCCN6C[C@H](F)C7)nc5c3F)N(C3CCCCC(O)C3)CCO4)c12` (stereo partly drawn) [Compound 825, 2-amino-4-(8-chloro-10-fluoro-2-(((2R,7aS)-2-fluorotetrahydro-1H-pyrrolizin-7a(5H)-yl)methoxy)-4-(3-hydroxycycloheptyl)-5,6-dihydro-4H-[1,4]oxazepino[5,6,7-de]quinazolin-9-yl)-7-fluorobenzo[b]thiophene-3-carbonitrile], the IC50 with A549 cells was less than 5000 nM.
The same measure, in the same setting: next, `N#Cc1c(N)sc2c(F)ccc(-c3c(Cl)c4c5c(nc(OC[C@@]67CCCN6C[C@H](F)C7)nc5c3F)N(CC(F)F)CCO4)c12` [Compound 827, 2-amino-4-(8-chloro-4-(2,2-difluoroethyl)-10-fluoro-2-(((2R,7aS)-2-fluorotetrahydro-1H-pyrrolizin-7a(5H)-yl)methoxy)-5,6-dihydro-4H-[1,4]oxazepino[5,6,7-de]quinazolin-9-yl)-7-fluorobenzo[b]thiophene-3-carbonitrile]: less than 5000 nM.
`N#Cc1c(N)sc2c(F)ccc(-c3c(Cl)c4c5c(nc(OC[C@@]67CCCN6C[C@H](F)C7)nc5c3F)N(C3CCOC3)[C@@H](C(F)F)CO4)c12` (stereo partly drawn) [Compound 855, 2-amino-4-((5R)-8-chloro-5-(difluoromethyl)-10-fluoro-2-(((2R,7aS)-2-fluorotetrahydro-1H-pyrrolizin-7a(5H)-yl)methoxy)-4-(tetrahydrofuran-3-yl)-5,6-dihydro-4H-[1,4]oxazepino[5,6,7-de]quinazolin-9-yl)-7-fluorobenzo[b]thiophene-3-carbonitrile]: the figures for the IC50 at K-Ras G12S, with A549 cells and at K-Ras G12V were less than 100 nM, less than 5000 nM and less than 100 nM, respectively.
As for `C[C@H](Oc1nc2c3c(c(Cl)c(-c4ccc(F)c5sc(N)c(C#N)c45)c(F)c3n1)OCCN2[C@@H]1CCN(C(=O)C(F)F)C1)[C@@H]1CCCN1C` [Compound 946, 2-amino-4-(8-chloro-4-((R)-1-(2,2-difluoroacetyl)pyrrolidin-3-yl)-10-fluoro-2-((S)-1-((S)-1-methylpyrrolidin-2-yl)ethoxy)-5,6-dihydro-4H-[1,4]oxazepino[5,6,7-de]quinazolin-9-yl)-7-fluorobenzo[b]thiophene-3-carbonitrile], the IC50 at K-Ras G12S is less than 100 nM; in the experiment on A549 cells, less than 5000 nM; on K-Ras G12V, less than 100 nM; on K-Ras WT, less than 100 nM; at K-Ras G12D it was less than 100 nM.
For the molecule `N#Cc1c(N)sc2c(F)ccc(-c3c(Cl)c4c5c(nc(OC[C@@]67CCCN6C[C@H](F)C7)nc5c3F)N(C3C5CNC3C5)CCO4)c12` (stereo partly drawn) [Compound 991, 4-(4-(2-azabicyclo[2.1.1]hexan-5-yl)-8-chloro-10-fluoro-2-(((2R,7aS)-2-fluorotetrahydro-1H-pyrrolizin-7a(5H)-yl)methoxy)-5,6-dihydro-4H-[1,4]oxazepino[5,6,7-de]quinazolin-9-yl)-2-amino-7-fluorobenzo[b]thiophene-3-carbonitrile], the IC50 at K-Ras G12S is less than 100 nM; in the experiment on A549 cells it was less than 5000 nM; at K-Ras G12V it was less than 100 nM; at K-Ras WT, less than 100 nM; at K-Ras G12D, less than 100 nM.
In the case of `N#Cc1c(N)sc2c(F)ccc(-c3c(Cl)c4c5c(nc(OC[C@@]67CCCN6C[C@H](F)C7)nc5c3F)N(C3CC5(C3)CC5(F)F)CCO4)c12` (stereo partly drawn) [Compound 1004, 2-amino-4-(8-chloro-4-(1,1-difluorospiro[2.3]hexan-5-yl)-10-fluoro-2-(((2R,7aS)-2-fluorotetrahydro-1H-pyrrolizin-7a(5H)-yl)methoxy)-5,6-dihydro-4H-[1,4]oxazepino[5,6,7-de]quinazolin-9-yl)-7-fluorobenzo[b]thiophene-3-carbonitrile], the IC50 with A549 cells was less than 5000 nM; at K-Ras G12V, less than 100 nM; in the experiment on SW620 cells, less than 5000 nM; at K-Ras WT, less than 100 nM.
As to `N#Cc1c(N)sc2c(F)ccc(-c3c(Cl)c4c5c(nc(OC[C@@]67CCCN6C[C@H](F)C7)nc5c3F)NCCO4)c12` [Compound 1087, 2-amino-4-(8-chloro-10-fluoro-2-(((2R,7aS)-2-fluorotetrahydro-1H-pyrrolizin-7a(5H)-yl)methoxy)-5,6-dihydro-4H-[1,4]oxazepino[5,6,7-de]quinazolin-9-yl)-7-fluorobenzo[b]thiophene-3-carbonitrile], the IC50 at K-Ras G12S is less than 100 nM; with A549 cells it was less than 5000 nM; on K-Ras G12V, less than 100 nM; on K-Ras WT it was less than 100 nM; at K-Ras G12D, less than 100 nM.
For `N#Cc1c(N)sc2c(F)ccc(-c3c(Cl)c4c5c(nc(OC[C@@]67CCCN6C[C@H](F)C7)nc5c3F)N(C3CC35CCN(C=O)C5)CCO4)c12` (stereo partly drawn) [Compound 1091, 2-amino-4-(8-chloro-10-fluoro-2-(((2R,7aS)-2-fluorotetrahydro-1H-pyrrolizin-7a(5H)-yl)methoxy)-4-(5-formyl-5-azaspiro[2.4]heptan-1-yl)-5,6-dihydro-4H-[1,4]oxazepino[5,6,7-de]quinazolin-9-yl)-7-fluorobenzo[b]thiophene-3-carbonitrile], the IC50 on K-Ras G12S was less than 100 nM; with A549 cells, less than 5000 nM; on K-Ras G12V, less than 100 nM; on K-Ras WT it was less than 100 nM; on K-Ras G12D, less than 100 nM.
`N#Cc1c(N)sc2c(F)ccc(-c3c(Cl)c4c5c(nc(OC[C@@]67CCCN6C[C@H](F)C7)nc5c3F)N(C3COC5(CNC5)C3)CCO4)c12` (stereo partly drawn) [Compound 1093, 2-amino-4-(8-chloro-10-fluoro-2-(((2R,7aS)-2-fluorotetrahydro-1H-pyrrolizin-7a(5H)-yl)methoxy)-4-(5-oxa-2-azaspiro[3.4]octan-7-yl)-5,6-dihydro-4H-[1,4]oxazepino[5,6,7-de]quinazolin-9-yl)-7-fluorobenzo[b]thiophene-3-carbonitrile]: the IC50 at K-Ras G12S was less than 100 nM; in the experiment with A549 cells, less than 5000 nM; on K-Ras G12V it was less than 100 nM; on K-Ras WT, less than 100 nM; at K-Ras G12D, less than 100 nM.
For the molecule `N#Cc1c(N)sc2c(F)ccc(-c3c(Cl)c4c5c(nc(OC[C@@]67CCCN6C[C@H](F)C7)nc5c3F)N(C3CC5(CCNC5)C3)CCO4)c12` (stereo partly drawn) [Compound 1112, 2-amino-4-(8-chloro-10-fluoro-2-(((2R,7aS)-2-fluorotetrahydro-1H-pyrrolizin-7a(5H)-yl)methoxy)-4-(6-azaspiro[3.4]octan-2-yl)-5,6-dihydro-4H-[1,4]oxazepino[5,6,7-de]quinazolin-9-yl)-7-fluorobenzo[b]thiophene-3-carbonitrile], the IC50 on K-Ras G12S is less than 100 nM; with A549 cells it was less than 5000 nM; on K-Ras G12V, less than 100 nM; at K-Ras WT, less than 100 nM; on K-Ras G12D it was less than 100 nM.
`CN1c2nc(OC[C@@]34CCCN3C[C@H](F)C4)nc3c(F)c(-c4ccc(F)c5sc(N)c(C#N)c45)c(Cl)c(c23)OCCC1CO` (stereo partly drawn) [Compound 1217, 2-amino-4-(9-chloro-11-fluoro-2-(((2R,7aS)-2-fluorotetrahydro-1H-pyrrolizin-7a(5H)-yl)methoxy)-5-(hydroxymethyl)-4-methyl-4,5,6,7-tetrahydro-[1,5]oxazocino[4,3,2-de]quinazolin-10-yl)-7-fluorobenzo[b]thiophene-3-carbonitrile]: the IC50 on K-Ras G12S was less than 100 nM; on K-Ras G12V it was less than 100 nM; in the experiment on SW620 cells, less than 5000 nM; at K-Ras WT, less than 100 nM; on K-Ras G12D it was less than 100 nM.

The values above are taken from patent publication US12209102B2, “Heterocyclic compounds and uses thereof” (Kumquat Biosciences Inc., priority 2022, dated 2025).
